Five molecules from ChEMBL document CHEMBL5029201, “Development of Polyamine Lassos as Polyamine Transport Inhibitors” (ACS Med Chem Lett, 2022) can be followed below.

A short description of data set [1]: Decrease in intracellular polyamine level in human L3.6pI cells assessed as Spd/Spm molar ratio at 30 uM measured after 24 hrs in presence of DFMO by HPLC analysis (reference value: 0.2). It is filed as functional, L3.6pl.
Data set [2] deals with L3.6pl. The data set is described as follows: Inhibition of spermidine uptake in human L3.6pI cells assessed as effect on cell growth measured after 72 hrs in presence of DFMO by CellTiter96 aqueous one solution assay. It is filed as functional, cell-based.
The test system of data set [3] is L3.6pl. The data set is described as follows: Cytotoxicity against human L3.6pl cells assessed as reduction in cell growth measured after 72 hrs by CellTiter96 one aqueous solution assay. Particulars: for IC50: Homo sapiens, L3.6pl; for MTC: human, l3.6pl, time 72 hrs. It is filed as cell-based.
The nature of data set [4]: (§1) Cytotoxicity against murine L1210 cells assessed as reduction in cell growth measured after 72 hrs by CellTiter96 one aqueous solution assay. It is filed as cell-based, Mus musculus. The conditions noted are these: mouse, L1210 cells; time 72 hrs; read-out: MTC.
A further data set concerns L1210. The description is as §1. It is filed as cell-based, Mus musculus. Particulars: Mus musculus, L1210, 72 h.
The test system of data set [5] is L3.6pl. The data set is described as follows: Inhibition of [3H]spermine uptake in human L3.6pI cells at 3 to 10 uM measured after 15 mins by scintillation counter method. Particulars: dose 3-10 µM. It is filed as functional, cell-based.
Data set [6] is described as follows: Decrease in intracellular polyamine level in human L3.6pI cells assessed as Spd/Spm molar ratio at 30 uM measured after 24 hrs by HPLC analysis (reference value: 1.9). It is filed as functional, L3.6pl.
Data set [7] relates to L3.6pl. The data set is described as follows: Inhibition of [3H]spermidine uptake in human L3.6pI cells at 3 to 10 uM measured after 15 mins by scintillation counter method. It is filed as functional, cell-based. The conditions noted are these: dose 3-10 µM.
A short description of data set [8]: Inhibition of polyamine transport system in human L3.6pI cells assessed as reduction in [3H] spermine uptake by Lineweaver-Burk double reciprocal plot analysis. The conditions noted are these: l3.6pl. It is filed as cell-based.
Data set [9] in a line: Decrease in intracellular polyamine level in human L3.6pI cells assessed as total polyamine level at 30 uM measured after 24 hrs in presence of DFMO and Spd by HPLC analysis (reference value: 23.5 nmol/mg). It is filed as functional, L3.6pl.
Data set [10] is described as follows: Decrease in intracellular polyamine level in human L3.6pI cells assessed as total polyamine level at 30 uM measured after 24 hrs in presence of DFMO by HPLC analysis (reference value: 20.7 nmol/mg). It is filed as functional, L3.6pl.
Data set [11] in a line: Decrease in intracellular polyamine level in human L3.6pI cells assessed as Spd/Spm molar ratio at 30 uM measured after 24 hrs in presence of DFMO and Spd by HPLC analysis (reference value: 0.4). It is filed as functional, L3.6pl.
For data set [12], the system named is L3.6pl. The experiment in a line: Inhibition of [3H]putresine uptake in human L3.6pI cells at up to 30 uM measured after 15 mins by scintillation counter method. It is filed as functional, cell-based. Particulars: dose microM <=30, time 15.0 min.
Data set [13] in a line: Inhibition of polyamine transport system in human L3.6pI cells assessed as reduction in [3H] spermidine uptake by Lineweaver-Burk double reciprocal plot analysis. It is filed as cell-based. Particulars: l3.6pl.
In data set [14] the test system is L3.6pl. The experiment in a line: Effect on human L3.6pI cells assessed as rescue of Ant44-induced toxicity at 30 uM measured after 24 hrs. It is filed as functional.
A short description of data set [15]: Decrease in intracellular polyamine level in human L3.6pI cells assessed as total polyamine level at 30 uM measured after 24 hrs by HPLC analysis (reference value: 35.9 nmol/mg). It is filed as functional, L3.6pl.
Data set [16] in a line: Inhibition of polyamine transport system in human L3.6pI cells assessed as reduction in [3H] putrescine uptake by Lineweaver-Burk double reciprocal plot analysis. It is filed as cell-based. Particulars: l3.6pl.
Data set [17] is described as follows: Inhibition of polyamine transport system in murine L1210 cells assessed as reduction in [3H] spermidine uptake by Lineweaver-Burk double reciprocal plot analysis. It is filed as cell-based, Mus musculus.

Calls of active or inactive are those of the source. The rule behind the calls is not given here.

The IC50 is the concentration at which inhibition is half-maximal. For orientation: Ki means a dissociation constant, usually derived from enzyme kinetics or from competition with a known ligand. For the molecule `Cl.Cl.Cl.Cl.Cl.NCCCCNCCCCN1CCNCCNCC1`, the Ratio was determined as 0.1 in data set [1], 1.6 in data set [6] and 0.2 in data set [11]. Moreover, the outcome with L3.6pl [2] and in the data set with L3.6pl [14] was Active. Further, the IC50 is 1170 µM in the data set with L3.6pl [3] and more than 100 µM with L1210. In the data set with L3.6pl [3], the MTC amounted to 500 µM. Further, the MCC at 72 h in data set [4] was more than 100000 nM. The inhibition entry in the data set on L3.6pl [5] and with L3.6pl [7] was “Active” throughout. The inhibitory constant (Ki) in [8] was found to be 1.3 µM; in data set [13], 3.3 µM; in data set [16], 11.6 µM; in data set [17] it was 1.9 µM. Moreover, the Activity in data set [9] is recorded as 20.8 nmol/mg; in data set [10], 17 nmol/mg; in data set [15] it was 36.4 nmol/mg. Also, the inhibition result with L3.6pl [12] is “inactive”.
With `CNCCCCNCCCCNCc1cc(CNCCCCNCCCCNC)cc(CNCCCCNCCCCNC)c1`, the IC50 with L3.6pl [3] worked out at 50 µM. Besides, the MTC in the data set on L3.6pl [3] worked out at 3 µM. In addition, the inhibition entry in the data set with L3.6pl [5] and with L3.6pl [7] was “Active” in each case. For the same molecule, the Ki in [8] came to 0.9 µM; in data set [13], 2.6 µM; in data set [16], 17.4 µM.
Consider `C1CNCCNCCN1`, for which, in the data set with L3.6pl [3], the IC50 was 980 µM and the MTC turned out to be 250 µM.
With `Cl.Cl.Cl.Cl.Cl.NCCCCNCCCCN1CCCNCCCNCCC1`, the outcome in the data set with L3.6pl [2] was Active. The figures for the concentration for half-maximal inhibition (IC50) in the data set on L3.6pl [3] and in the data set on L1210 were 368 µM and more than 100 µM, respectively. Moreover, the MTC in the data set with L3.6pl [3] stood at 100 µM. For the same molecule, the MCC at 72 h in [4] is 1000 nM. In addition, the inhibitory constant (Ki) was determined as 3.7 µM in data set [13] and 7.1 µM in [17].
Regarding `C1CNCCCNCCCNC1`, in the data set with L3.6pl [3], the 50% inhibitory concentration (IC50) worked out at 129 µM and the MTC is 50 µM.
